“Also recorded” adds a separate entry of the source.
B1: Bacillus subtilus (SEQ ID NO:9): product of the Bacillus subtilus gene cloned in pET23a(+) and expressed in E. coli BL21 (DE3); tested as cell extract (protein, listed as Bacillus subtilis)
chain: MKNKWYKPKRHWKEIELWKDVPEEKWNDWLWQLTHTVRTLDDLKKVINLTEDEEEGVRISTKTIPLNITPYYASLMDPDNPRCPVRMQSVPLSEEMHKTKYDLEDPLHEDEDSPVPGLTHRYPDRVLFLVTNQCSMYCRYCTRRRFSGQIGMGVPKKQLDAAIAYIRETPEIRDCLISGGDGLLINDQILEYILKELRSIPHLEVIRIGTRAPVVFPQRITDHLCEILKKYHPVWLNTHFNTSIEMTEESVEACEKLVNAGVPVGNQAVVLAGINDSVPIMKKLMHDLVKIRVRPYYIYQCDLSEGIGHFRAPVSKGLEIIEGLRGHTSGYAVPTFVVDAPGGGGKIALQPNYVLSQSPDKVILRNFEGVITSYPEPENYIPNQADAYFESVFPETADKKEPIGLSAIFADKEVSFTPENVDRIKRREAYIANPEHETLKDRREKRDQLKEKKFLAQQKKQKETECGGDSS
modifications: CDS (1)..(1413)
notes: product of the Bacillus subtilus gene cloned in pET23a(+) and expressed in E. coli BL21 (DE3); tested as cell extract
B2: purified lysine 2,3-aminomutase from Clostridium subterminale SB4 cells: naturally produced Clostridial enzyme, SEQ ID NO: 2 (protein)
chain: MINRRYELFKDVSDADWNDWRWQVRNRIETVEELKKYIPLTKEEEEGVAQCVKSLRMAITPYYLSLIDPNDPNDPVRKQAIPTALELNKAAADLEDPLHEDTDSPVPGLTHRYPDRVLLLITDMCSMYCRHCTRRRFAGQSDDSMPMERIDKAIDYIRNTPQVRDVLLSGGDALLVSDETLEYIIAKLREIPHVEIVRIGSRTPVVLPQRITPELVNMLKKYHPVWLNTHFNHPNEITEESTRACQLLADAGVPLGNQSVLLRGVNDCVHVMKELVNKLVKIRVRPYYIYQCDLSLGLEHFRTPVSKGIEIIEGLRGHTSGYCVPTFVVDAPGGGGKTPVMPNYVISQSHDKVILRNFEGVITTYSEPINYTPGCNCDVCTGKKKVHKVGVAGLLNGEGMALEPVGLERNKRHVQE
modifications: Clostridium subterminale

Columns and labels:
[1] = biological target: T1, Clostridium subterminale SB4 lysine-2,3-aminomutase (Clostridium subterminale, UniProt Q9XBQ8); assay: EPR spectroscopy of lysine 2,3-aminomutase and coenzymes mixed with L-α-amino acids; type: biochemical; conditions: amino acid in place of L-lysine, frozen, EPR at 77 K
T1 construct: made in house; host or cells: E. coli BL21(DE3) with pET-23a(+) (lysine 2,3-aminomutase gene) and pAlter-Ex2 (dnaY gene)
Method: FIG. 3 is electron paramagnetic resonance (EPR) spectroscopy of Clostridium subterminale SB4 lysine-2,3-aminomutase in the presence of L-lysine (1), L-aspartate (2), L-glutamate (3), or no substrate (4). Reductively incubated recombinant-produced purified lysine-2,3-aminomutase (18) (75 μM-hexamer) was quickly mixed at 24° C. and frozen (total time<15 sec) at −150° C. with the following components: A) Tris(hydroxymethyl)aminomethane sulfate (Tris-sulfate) 240 mM pH 8.0; B) S-(5′-adenosyl)-L-methionine 1.4 mM; C) sodium hydrosulfite 2.0 mM; D) L-lysine, L-aspartate, or L-glutamate 120 mM. Concentrations listed are final concentrations after mixing. Following freezing, samples were evaluated at 77° K by EPR using a Varian model E3 spectrometer with the following settings: Field center—3250 Gauss; Scan width—200 Gauss; Microwave frequency—9.1 GHz; Microwave power—5 milli Watts; Modulation frequency—100 kHz; Modulation amplitude—1.6 Gauss; Time constant—0.3 sec.; Scan time—240 sec; Gain—125,000.
FIG. 4 is electron paramagnetic resonance (EPR) spectroscopy of Clostridium subterminale SB4 lysine-2,3-aminomutase in the presence of L-alanine (2), L-alanine+ethylamine (3) L-alanine+propylamine (4), L-lysine (5) and no substrate (1). Conditions as given in FIG. 3 except L-lysine or L-alanine 120 mM; ± ethylamine or propylamine each 0.19 M or no substrate (5).
FIG. 5 is electron paramagnetic resonance spectroscopy of Clostridium subterminale SB4 lysine-2,3-aminomutase in the presence of L-lysine (1), L-homoserine (2), DL-homocysteine (3), or L-methionine (4). Reductively incubated recombinant-produced purified lysine-2.3-aminomutase (18) (51.4 μM-hexamer) was quickly mixed at 24° C. and frozen (total time<15 sec) at −150° C. with the following components: A) Tris(hydroxymethyl)aminomethane sulfate (Tris-sulfate) 185 mM pH 8.0; B) S-(5′-adenosyl)-L-methionine 1.1 mM; C) sodium hydrosulfite 1.5 mM; D) L-lysine 92 mM, L-homoserine 92 mM, or DL-homocysteine 92 mM, or L-methionine 65 mM. Concentrations listed are final concentrations after mixing. Following freezing, samples were evaluated at 77° K by EPR using a Varian model E3 spectrometer with the following settings: Field center—3250 Gauss; Scan width—200 Gauss; Microwave frequency—9.1 GHz; Microwave power—5 milli Watts; Modulation frequency—100 kHz; Modulation amplitude—1.6 Gauss; Time constant—0.3 sec.; Scan time—240 sec; Gain—250,000. FIG. 4B. 4.6×enlargement of (2), (3), and (4) of FIG. 4A.
Although lysine 2,3-aminomutase is selective for L-lysine as its substrate, it also catalyzes the 2,3-aminomutation of other L-α-amino acids. A simple and definitive assay for such reaction is the EPR spectrum of a mixture of lysine 2,3-aminomutase with its coenzymes and an L-α-amino acid.
The spectral envelope is determined by five structural features in the substrate: 1) the L-configuration at the optically active carbon-2, shown as Cα in FIG. 1A; 2) a hydrogen atom bonded to Cα; 3) a carboxyl group bonded to Cα; 4) a nitrogen atom bonded to Cβ; and 5) a hydrogen atom bonded to Cβ. […] The conformation of the radical is determined by the dihedral angles relating the axis of the π-radical orbital to the bonds Cα—H, Cβ—H, and Cβ—N, and these angles determine the nuclear hyperfine splitting in the spectrum and, thereby, the shape of the spectral envelope.

[2] = biological target: T1, Clostridium subterminale SB4 lysine-2,3-aminomutase; assay: Conversion of L-alanine to β-alanine by lysine 2,3-aminomutase, HPLC of PITC derivatives; type: biochemical; conditions: for effect of amine on generation of β-alanine from L-alanine: amine 0.2 M, L-alanine 0.38 M, 90 min at 37° C.
Method: FIG. 6 is time course of the appearance of the HPLC peak of β-alanine by Clostridium subterminale SB4 lysine 2,3-aminomutase. Reductively incubated recombinant-produced purified lysine-2,3-aminomutase (18) (10 μM-hexamer) was mixed with the following components: A) N-[2-hydroxyethyl-piperazine-N′-[3-propanesulfonic acid] (EPPS) 36 mM pH 8.0, Na salt; B) S-(5′-adenosyl)-L-methionine 390 μM; C) sodium hydrosulfite 3.6 mM; D) L-alanine 380 mM; E) ethylamine 0.20 M pH 8.0. At various time intervals at 37° C., 60 μl of reaction mix was added to 20 μl of 2 N perchloric acid to stop the reaction. Samples were centrifuged at 14,000×g for 10 mm. The supernatants were treated with phenylisothiocyanate (PITC) according to the method of Heinrikson and Meredith (28). The PITC derivative of L-alanine was separated from the β-alanine derivative by HPLC chromatography (28) using a C18 reverse phase column (Beckman Ultrasphere 5μ, 4.6 mm×25 cm, #235329), flow rate 1 ml/min, room temperature. The amino acids were resolved with a complex linear gradient composed of buffer A: 0.05 M ammonium acetate in water and buffer B: 0.1M ammonium acetate in 44% water, 46% acetonitrile, 10% methanol. The gradient established was 0-10% Buffer B in 35 min, then 10-30% Buffer B in 35 min. The PITC derivative of L-alanine elutes at a retention time of 35.0 min whereas the PITC derivative of β-alanine elutes at 26.6 min.
FIG. 8 is the effect of varying concentrations of L-alanine on the production of β-alanine by Clostridiurn subterminale SB4 lysine 2,3-aminomutase. Experimental conditions as given in FIG. 6 except for the concentration of L-alanine. The concentrations of L-alanine used: 0.05 M (2), 0.11 M (3), 0.20 M (4), and 0.38 M (5). The zero reaction time HPLC elution profile for 0.05 M L-alanine (1) is included. The enzyme was reacted with L-alanine for 90 min at 37° C. prior to stopping with perchloric acid and PITC derivatization.
FIG. 9 is the potentiating effect of ethyl and propylamines on the generation of β-alanine from L-alanine by Clostridium subterminale SB4 lysine 2,3-aminomutase. […]
Reductively incubated recombinant-produced purified Clostridium subterminale SB4 lysine-2,3-aminomutase (10 μM-hexamer) was mixed with the following components: 1) EPPS buffer 36 mM pH 8.0, Na salt; 2) S-(5′-adenosyl)-L-methionine 390 μM; 3) sodium hydrosulfite 3.6 mM; 4) L-alanine 380 mM; 5) ethylamine 0.20 M pH 8.0. […] The eluting compounds were detected by spectrophotometry at a wavelength of 254 nm The amino acids were resolved with a complex linear gradient composed of buffer A: 0.05 M ammonium acetate in water and buffer B: 0.1M ammonium acetate in 44% water, 46% acetonitrile, 10% methanol. […]

[3] = biological target: T2, lysine 2,3-aminomutase (Bacillus subtilis, UniProt O34676); assay: Lysine 2,3-aminomutase activity of extracts of E. coli BL21 (DE3) cells expressing the B. subtilus gene; type: biochemical, Bacillus subtilus; conditions: pET23a(+) construct in E. coli BL21 (DE3), induction with 1 mM IPTG
T2 construct: made in house; host or cells: E. coli BL21 (DE3), pET23a(+), NdeI/XhoI; cell extract
Description: In one instance, the gene from Bacillus subtilus (SEQ ID NO:9) was isolated from chromosomal DNA by PCR generating an oligonucleotide insert which after the appropriate restriction digestion was cloned into the NdeI and XhoI site of pET23a(+) expression vector (Novagen, Inc., Madison, Wis.).

[4] = biological target: T3, Clostridial lysine 2,3-aminomutase (Clostridium subterminale, UniProt Q9XBQ8); conditions: purified enzyme from Clostridium subterminale SB4 cells; Lieder et al., Biochemistry 37:2578 (1998); cited from earlier work
T3 construct: made in house; host or cells: E. coli BL21(DE3) with pET-23a(+) (lysine 2,3-aminomutase gene) and pAlter-Ex2 (dnaY gene)

Molecule | EPR spectrum of product-related radical compared with L-lysine [1] | also measured
NC(CCS)C(=O)O (racemic) [DL-homocysteine] | less intense but otherwise essentially indistinguishable from that with L-lysine | –
C[C@H](N)C(=O)O [L-alanine] | less intense but otherwise essentially indistinguishable from that with L-lysine | production of β-alanine from L-alanine ([2]; L-alanine 0.05 M to 0.38 M, ethylamine 0.20 M, 37° C.): β-alanine was produced from L-alanine; also recorded: increased β-alanine with increased substrate (L-alanine) concentration; rate of conversion of L-alanine to β-alanine relative to the rate with 0.2 M ethylamine ([2]; in the absence of ethylamine or propylamine, estimated): about 1/20
N[C@@H](CC(=O)O)C(=O)O [L-aspartate] | less intense but otherwise essentially indistinguishable from that with L-lysine | –
N[C@@H](CCC(=O)O)C(=O)O [L-glutamate] | less intense but otherwise essentially indistinguishable from that with L-lysine | –
N[C@@H](CCO)C(=O)O [L-homoserine] | less intense but otherwise essentially indistinguishable from that with L-lysine | –
CSCC[C@H](N)C(=O)O [L-methionine] | weak but also consistent with expectations for the analogous radical | –
CCCN [Propylamine] | – | effect of amine on generation of β-alanine from L-alanine [2]: potentiates the reaction less effectively than ethylamine
CCN [ethylamine] | – | effect of amine on generation of β-alanine from L-alanine [2]: potentiated
B1 | – | lysine 2,3-aminomutase activity of cell extracts [3]: exhibiting lysine 2,3-aminomutase activity
B2 | – | specific activity [4]: 30-40 units/mg
